Reference: PubChem BioAssay AID2060509 (Molecular Pharmacology Branch, DTP, NCI, 2025)
“And” between values parts separate entries of the source, which are not always exact repeats. Identical values can stand only once.

System: 485176-168-R4-J1-PDC spheroids with HUVEC/MSC, viability
Experiment: Anticancer human tumor 485176-168-R4-J1-PDC patient-derived pancreatic adenocarcinoma cell line growth inhibition [GQUAD]
Details: for viability, T/C: stronger effect = lower value
Description: DNA G-quadruplex Stabilizer Agents in Combinations in Complex Spheroids
A high-throughput screen of multi-cell type tumor spheroids was designed to identify active combinations of DNA G-quadruplex stabilizer agents and targeted small molecules. Complex spheroids include a stromal component modeled by human endothelial cells (HUVEC) and fibroblasts modeled by human mesenchymal stem cells (MSCs). The concentration ranges selected for each drug and investigational agent were based upon clinically achievable concentrations if the clinical Cmax of the agent was known.
Compounds. The drugs and investigational agents: pidnarulex (CX-5461; NSC782164), APTO-253 (NSC789042), BRACO-19 (NSC847499), peposertib (NSC802822), ceralasertib (NSC780249), elimusertib (NSC800525), camonsertib (NSC841442), AZD-1390 (NSC803789), olaparib (NSC753686), talazoparib (NSC767125), ART-558 (NSC835418), sotorasib (NSC818433), MRTX-1133 (NSC836407), SN-38 (NSC673596), topotecan (NSC609699), etoposide (NSC141540), doxorubicin (NSC123127), gemcitabine (NSC613327), 5-fluorouracil (NSC19893), paclitaxel (NSC125973), vemurafenib (NSC761431), panobinostat (NSC761190), R-306465 (JNJ-16241199; NSC773264), adavosertib (NSC754352), TP-3654 (NSC805149), carboplatin (NSC241240), KSQ-4279 (NSC840948), and staurosporine (NSC755774) were obtained from the National Cancer Institute (NCI) Developmental Therapeutics Program Chemical Repository (34). The FDA-approved anticancer drug set is available from the NCI Developmental Therapeutics Program. […] The stock solutions were prepared in dimethyl sulfoxide (DMSO, Sigma-Aldrich, St. Louis, MO, cat. D2650) at 800-fold the tested concentration and stored at -70 degrees C prior to their use. All drugs and investigational agents were tested over a range starting from a high concentration at or near the clinical Cmax and decreasing in half-log increments. If the clinical Cmax for an agent had not been determined, the highest concentration tested was 10 microM.
2.3 Cell Culture. All cells were maintained in an incubator at 37 degrees C and 5% CO2 with 95% humidity. The PDC lines were cultured according to standard operating procedures established by the NCI PDMR. All PDCs were thawed and cultured in Matrigel-coated flasks prepared with a working solution of 1X Ham's F-12 nutrient mix, without supplementation (Invitrogen, cat. 11765054), 100 U/mL penicillin-streptomycin (Invitrogen, cat. 15140122), and 2.5% Matrigel (Corning Inc., cat. 354248) for the first three passages. The 857933-349-R-J2-PDC line was cultured in 6C/Colon 1B media, which includes advanced DMEM/F-12 (Thermo Fisher Scientific, cat. 12634028), 10 mM HEPES (Thermo Fisher Scientific, cat. 15630080), 1X GlutaMAX supplement (Thermo Fisher Scientific, cat. 35050061), 0.1 mg/mL primocin (InvivoGen, cat. ant-pm-2), 10% defined fetal bovine serum, heat inactivated (HyClone Laboratories Inc., cat. SH30070.03HI), 50% L-WRN conditioned media (ATCC, cat. CRL-3276), 1.25 mM N-Acetyl-L-cysteine (Sigma-Aldrich, cat. A9165), 10 mM nicotinamide (Sigma-Aldrich, cat. N0636), 1X B-27 supplement (Thermo Fisher Scientific, cat. 17504044), 1X N-2 supplement (Thermo Fisher Scientific, cat. 17502048), 10 microM Y-27632 dihydrochloride (Tocris Bioscience, cat. 1254), and 50 ng/mL human EGF recombinant protein (Thermo Fisher Scientific, cat. PHG0311). The 485176-168-R4-J1-PDC line was cultured in Panc media, which includes all 6C/Colon 1B media components plus 100 ng/mL human FGF-10 (Thermo Fisher Scientific, cat. 100-26), 500 nM SB-431542 (Selleckchem, cat. S1067), and gastrin (Tocris, cat. 3006).
[…]

[1] = curve of first compound, second compound 0.0316 µM
[2] = curve of first compound, second compound 0.1 µM
[3] = curve of first compound, second compound 0.316 µM
[4] = curve of first compound, second compound 1 µM
[5] = curve of first compound, second compound 3.16 µM
[6] = curve of first compound, second compound 10 µM
[7] = second compound 0.0316 µM, first compound 0.0316 µM
[8] = second compound 0.0316 µM, first compound 0.1 µM
[9] = second compound 0.0316 µM, first compound 0.316 µM
[10] = second compound 0.0316 µM, first compound 1 µM
[11] = second compound 0.0316 µM, first compound 3.16 µM
[12] = second compound 0.0316 µM, first compound 10 µM
[13] = second compound 0.1 µM, first compound 0.0316 µM
[14] = second compound 0.1 µM, first compound 0.1 µM
[15] = second compound 0.1 µM, first compound 0.316 µM
[16] = second compound 0.1 µM, first compound 1 µM
[17] = second compound 0.1 µM, first compound 3.16 µM
[18] = second compound 0.1 µM, first compound 10 µM
[19] = second compound 0.316 µM, first compound 0.0316 µM
[20] = second compound 0.316 µM, first compound 0.1 µM
[21] = second compound 0.316 µM, first compound 0.316 µM
[22] = second compound 0.316 µM, first compound 1 µM
[23] = second compound 0.316 µM, first compound 3.16 µM
[24] = second compound 0.316 µM, first compound 10 µM
[25] = second compound 1 µM, first compound 0.0316 µM
[26] = second compound 1 µM, first compound 0.1 µM
[27] = second compound 1 µM, first compound 0.316 µM
[28] = second compound 1 µM, first compound 1 µM
[29] = second compound 1 µM, first compound 3.16 µM
[30] = second compound 1 µM, first compound 10 µM
[31] = second compound 3.16 µM, first compound 0.0316 µM
[32] = second compound 3.16 µM, first compound 0.1 µM
[33] = second compound 3.16 µM, first compound 0.316 µM
[34] = second compound 3.16 µM, first compound 1 µM
[35] = second compound 3.16 µM, first compound 3.16 µM
[36] = second compound 3.16 µM, first compound 10 µM
[37] = second compound 10 µM, first compound 0.0316 µM
[38] = second compound 10 µM, first compound 0.1 µM
[39] = second compound 10 µM, first compound 0.316 µM
[40] = second compound 10 µM, first compound 1 µM
[41] = second compound 10 µM, first compound 3.16 µM
[42] = second compound 10 µM, first compound 10 µM
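Further: spheroids exposed to compounds for seven days before readout.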
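Wherever viability, T/C is given: percent viability relative to DMSO vehicle control wells as 100%.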

Structure (SMILES): COc1cccc2c1C(=O)c1c(O)c3c(c(O)c1C2=O)CC(O)(C(=O)CO)CC3OC1CC(N)C(O)C(C)O1 (stereo unspecified) + Cc1[nH]c2ccc(F)cc2c1-c1nc2c3cccnc3c3ncccc3c2[nH]1
- IC50 [1]: 0.391 µM
- IC50 [2]: 0.267 µM
- IC50 [3]: 0.259 µM
- IC50 [4]: 0.433 µM
- IC50 [5]: 0.249 µM
- IC50 [6]: 0.314 µM
- viability, T/C [7]: 90.1%
- viability, T/C [8]: 71.5%
- viability, T/C [9]: 61.1%
- viability, T/C [10]: 14.7%
- viability, T/C [11]: 4.77%
- viability, T/C [12]: 0.13%
- viability, T/C [13]: 106%
- viability, T/C [14]: 71.6%
- viability, T/C [15]: 49.5%
- viability, T/C [16]: 23.3%
- viability, T/C [17]: 3.92%
- viability, T/C [18]: 0.39%
- viability, T/C [19]: 81.4%
- viability, T/C [20]: 65.9%
- viability, T/C [21]: 47.4%
- viability, T/C [22]: 23.6%
- viability, T/C [23]: 3.52%
- viability, T/C [24]: 0.18%
- viability, T/C [25]: 86.1%
- viability, T/C [26]: 72.5%
- viability, T/C [27]: 60.9%
- viability, T/C [28]: 26.8%
- viability, T/C [29]: 4.08%
- viability, T/C [30]: 0.14%
- viability, T/C [31]: 82.9%
- viability, T/C [32]: 59.3%
- viability, T/C [33]: 52%
- viability, T/C [34]: 24.9%
- viability, T/C [35]: 19.5%
- viability, T/C [36]: 0.2%
- viability, T/C [37]: 82%
- viability, T/C [38]: 70.6%
- viability, T/C [39]: 50.8%
- viability, T/C [40]: 21.8%
- viability, T/C [41]: 3.95%
- viability, T/C [42]: 0.38%

Structure (SMILES): Cc1cccc(N(C)C(=O)C2C(O)CCN2c2nc(C)cc(C(F)(F)F)c2C#N)c1 (stereo unspecified)
- viability, T/C (compound 0.0316 µM): 103% and 99% and 105%
- viability, T/C (compound 0.1 µM): 85.8% and 79.2% and 87.1%
- viability, T/C (compound 0.316 µM): 84.3% and 101% and 97.6%
- viability, T/C (compound 1 µM): 85.8% and 105% and 76.4%
- viability, T/C (compound 3.16 µM): 97.7% and 103% and 97.5%
- viability, T/C (compound 10 µM): 95.4% and 91.5% and 89.9%
- IC50 (curve of compound): > 10 µM

Structure (SMILES): COc1cc(C2c3cc4c(cc3C(OC3OC5COC(C)OC5C(O)C3O)C3COC(=O)C23)OCO4)cc(OC)c1O (stereo unspecified) + Cc1cnc(CNC(=O)c2c(=O)c3ccc(N4CCCN(C)CC4)nc3n3c2sc2ccccc23)cn1
- IC50 [1]: 0.322 µM
- IC50 [2]: 0.171 µM
- IC50 [3]: 0.123 µM
- IC50 [4]: < 0.0316 µM
- IC50 [5]: < 0.0316 µM
- IC50 [6]: < 0.0316 µM
- viability, T/C [7]: 87.9%
- viability, T/C [8]: 63.1%
- viability, T/C [9]: 49.7%
- viability, T/C [10]: 38.1%
- viability, T/C [11]: 21%
- viability, T/C [12]: 8.67%
- viability, T/C [13]: 65.4%
- viability, T/C [14]: 55.4%
- viability, T/C [15]: 40.6%
- viability, T/C [16]: 36%
- viability, T/C [17]: 22.3%
- viability, T/C [18]: 8.6%
- viability, T/C [19]: 55.6%
- viability, T/C [20]: 53.6%
- viability, T/C [21]: 38.2%
- viability, T/C [22]: 41.3%
- viability, T/C [23]: 24.3%
- viability, T/C [24]: 8.95%
- viability, T/C [25]: 56%
- viability, T/C [26]: 41.8%
- viability, T/C [27]: 47.4%
- viability, T/C [28]: 41.5%
- viability, T/C [29]: 18.4%
- viability, T/C [30]: 9.08%
- viability, T/C [31]: 49.9%
- viability, T/C [32]: 33.8%
- viability, T/C [33]: 35.7%
- viability, T/C [34]: 34.8%
- viability, T/C [35]: 22.8%
- viability, T/C [36]: 8.98%
- viability, T/C [37]: 42.4%
- viability, T/C [38]: 38.9%
- viability, T/C [39]: 39.1%
- viability, T/C [40]: 33.3%
- viability, T/C [41]: 18.1%
- viability, T/C [42]: 3.75%
